Earlier results, collected in patent US20250073219A1, “NEW COMPOSITION COMPRISING IMMUNOMODULATORY DRUG” (NANEXA AB, priority 2021, published 2025).

Conditions: oral, about 25 mg once daily, plasma; cited from earlier work

## Nc1cccc2c1CN(C1CCC(=O)NC1=O)C2=O (stereo not drawn) [lenalidomide, 3-(4-amino-1-3-dihydro-l-ovo-2H-isoindol-2yl)-2,6-piperidinedione]
  Cmax obtained from a dosing regimen comprising orally administering an about 25 mg dose once daily: about 568 ng/ml
